By IC50 is commonly meant the point on the concentration scale where inhibition reaches its midpoint. A higher IC50 goes with a need for much substance.

From patent US20120028967A1 (priority 2009, published 2012) come the findings set out here.

Where a name gives a salt, the structure may show the parent alone.

The target in this assay is α7-subtype of nicotinic receptors (Rattus norvegicus, UniProt Q05941). Nature of the assay: biochemical. It is filed as binding.
α7-subtype of nicotinic receptors, sequence (Q05941 23-502): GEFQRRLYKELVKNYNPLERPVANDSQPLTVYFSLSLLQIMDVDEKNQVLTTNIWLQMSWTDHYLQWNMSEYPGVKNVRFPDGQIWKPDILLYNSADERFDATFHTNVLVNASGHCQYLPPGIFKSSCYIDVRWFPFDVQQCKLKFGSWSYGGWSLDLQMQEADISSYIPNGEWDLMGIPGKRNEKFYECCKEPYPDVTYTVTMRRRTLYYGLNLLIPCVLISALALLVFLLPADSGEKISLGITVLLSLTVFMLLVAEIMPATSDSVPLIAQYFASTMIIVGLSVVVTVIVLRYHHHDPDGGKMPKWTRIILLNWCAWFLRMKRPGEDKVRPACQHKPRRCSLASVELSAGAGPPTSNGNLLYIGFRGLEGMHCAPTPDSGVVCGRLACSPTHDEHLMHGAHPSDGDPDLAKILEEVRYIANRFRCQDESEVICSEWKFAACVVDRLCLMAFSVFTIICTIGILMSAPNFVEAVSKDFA
Regarding `Brc1cnc(N2CCN3CCC2CC3)nc1` [Compound 1, 4-(5-Bromo-pyrimidin-2-yl)-1,4-diaza-bicyclo[3.2.2]nonane fumaric acid salt], 280 nM corresponded to half-maximal inhibition (IC50).

Molecule `Clc1cnc(N2CCN3CCC2CC3)nc1` [Compound 3, 4-(5-Chloropyrimidin-2-yl)-1,4-diazabicyclo[3.2.2]nonane fumaric acid salt] displayed an IC50 of 190 nM. Consider `Ic1cnc(N2CCN3CCC2CC3)nc1` [Compound 2, 4-(5-Iodopyrimidin-2-yl)-1,4-diazabicyclo[3.2.2]nonane fumaric acid salt], for which the IC50 worked out at 38 nM.
